System: C57BL/6 mice
Assay: animal or person
Format: in vivo
Conditions: Mus musculus, sc, 0.5 h, s.c. administration, 30 min, 55° C. water, read-out: ED50 (mg/kg) at 30 min on C57BL/6 mice in Warm-water Tail-flick Test

Row | SMILES | ED50
1 | CC(=O)Nc1ccc(CN2CCC(CCc3ccccc3)(COc3ccccn3)CC2)cc1 [Compound 123, N-(4-((4-phenethyl-4-((pyridin-2-yloxy)methyl)piperidin-1-yl)methyl)phenyl)acetamide] | > 10 mg/kg
2 | CC(=O)Nc1ccc(CN2CCC(CCc3ccccc3)(Oc3ccccn3)CC2)cc1 [Compound 124, N-(4-((4-phenethyl-4-(pyridin-2-yloxy)piperidin-1-yl)methyl)phenyl)acetamide] | > 10 mg/kg
3 | CCOCC1(CCc2ccccc2)CCN(c2ccc(NC(C)=O)cc2)CC1 [Compound 125, N-(4-(4-(ethoxymethyl)-4-phenethylpiperidin-1-yl)phenyl)acetamide] | > 10 mg/kg
4 | CCOCC1(CCc2ccccc2)CCN(CCc2ccc(NC(C)=O)cc2)CC1 [Compound 126, N-(4-(2-(4-(ethoxymethyl)-4-phenethylpiperidin-1-yl)ethyl)phenyl)acetamide] | > 10 mg/kg
5 | CCOCC1(CCc2ccccc2)CCN(c2ccc(N(C)C)cc2)CC1 [Compound 127, 4-(4-(ethoxymethyl)-4-phenethylpiperidin-1-yl)-N,N-dimethylaniline] | > 10 mg/kg
6 | CCOCC1(CCc2ccccc2)CCN(Cc2ccc(CCOC)cc2)CC1 [Compound 128, 4-(ethoxymethyl)-1-(4-(2-methoxyethyl)benzyl)-4-phenethylpiperidine] | > 10 mg/kg
7 | CCOCC1(CCc2ccccc2)CCN(Cc2ccc(COC)cc2)CC1 [Compound 129, 4-(ethoxymethyl)-1-(4-(methoxymethyl)benzyl)-4-phenethylpiperidine HC] | > 10 mg/kg
8 | CCOCC1(CCc2ccccc2)CCN(Cc2cc(C)c(NC(C)=O)c(C)c2)CC1 [Compound 130] | > 10 mg/kg
9 | CCOCC1(CCc2ccccc2)CCN(Cc2ccc(CC(C)=O)cc2)CC1 [Compound 131, 1-(4-((4-(ethoxymethyl)-4-phenethylpiperidin-1-yl)methyl)phenyl)propan-2-one] | > 10 mg/kg
10 | CCOCC1(COCc2ccccc2)CCN(Cc2ccc(NC(C)=O)cc2)CC1.Cl [Compound 132, N-(4-((4-(benzyloxymethyl)-4-(ethoxymethyl)piperidin-1-yl)methyl)phenyl)acetamide HCl] | > 10 mg/kg
11 | CCOC(=O)C1(CCc2ccccc2)CCCN(Cc2ccc(NC(C)=O)cc2)CC1 (centres unmarked) [Compound 133, ethyl 1-(4-acetamidobenzyl)-4-phenethylazepane-4-carboxylate] | > 10 mg/kg
12 | CCOCC1(CCc2ccccc2)CCN(Cc2ccc(-c3nccs3)cc2)CC1 [Compound 134, 2-(4-((4-(ethoxymethyl)-4-phenethylpiperidin-1-yl)methyl)phenyl)thiazole] | > 10 mg/kg
13 | CCOCC1(CCc2ccccc2)CCN(Cc2ccc(-c3nc(C)no3)cc2)CC1.Cl [Compound 135, 5-(4-((4-(ethoxymethyl)-4-phenethylpiperidin-1-yl)methyl)pheny)-3-methyl-1,2,4-oxadiazole HCl] | > 10 mg/kg
14 | CCOCC1(CCc2ccccc2)CCN(Cc2ccc(-c3ncon3)cc2)CC1.Cl [Compound 136, 3-(4-((4-(ethoxymethyl)-4-phenethylpiperidin-1-yl)methyl)phenyl)-1,2,4-oxadiazole HCl] | > 10 mg/kg
15 | CCOCC1(CCc2ccccc2)CCN(Cc2ccc(-c3nnco3)cc2)CC1 [Compound 137, 2-(4-((4-(ethoxymethyl)-4-phenethylpiperidin-1-yl)methyl)phenyl)-1,3,4-oxadiazole] | > 10 mg/kg
16 | CCOCC1(CCc2ccccc2)CCN(Cc2ccc(-c3nncs3)cc2)CC1 [Compound 138, 2-(4-((4-(ethoxymethyl)-4-phenethylpiperidin-1-yl)methyl)phenyl)-1,3,4-thiadiazole] | > 10 mg/kg
17 | CCOCC1(CCc2ccccc2)CCN(Cc2ccc(-c3cncs3)cc2)CC1 [Compound 139, 5-(4-((4-(ethoxymethyl)-4-phenethylpiperidin-1-yl)methyl)phenyl)thiazole] | > 10 mg/kg
18 | CCOCC1(CCc2ccccc2)CCN(Cc2ccc(-c3ncc[nH]3)cc2)CC1 [Compound 140, 1-(4-(1H-imidazol-2-yl)benzyl)-4-(ethoxymethyl)-4-phenethylpiperidine] | > 10 mg/kg
19 | CCOCC1(CCc2ccccc2)CCN(Cc2ccc(-c3cnc[nH]3)cc2)CC1 [Compound 141, 1-(4-(1H-imidazol-5-yl)benzyl)-4-(ethoxymethyl)-4-phenethylpiperidine] | > 10 mg/kg
20 | CCOCC1(CCc2ccccc2)CCN(Cc2ccc(CC(=O)O)cc2)CC1 [Compound 142, 2-(4-((4-(ethoxymethyl)-4-phenethylpiperidin-1-yl)methyl)phenyl)acetic acid] | > 10 mg/kg
21 | CCOCC1(CCc2ccccc2)CCN(Cc2ccc(CC(=O)N(C)OC)cc2)CC1 [Compound 143, 2-(4-((4-(ethoxymethyl)-4-phenethylpiperidin-1-yl)methyl)phenyl)-N-methoxy-N-methylacetamide] | > 10 mg/kg
22 | CCOCC1(CCc2ccccc2)CCN(Cc2ccc(C(=O)OC)cc2)CC1 [Compound 144, methyl 4-((4-(ethoxymethyl)-4-phenethylpiperidin-1-yl)methyl)benzoate] | > 10 mg/kg

Row | SMILES | ED50
23 | CCOCC1(CCc2ccccc2)CCN(Cc2ccc(C(=O)O)cc2)CC1 [Compound 145, 4-((4-(ethoxymethyl)-4-phenethylpiperidin-1-yl)methyl)benzoic acid] | > 10 mg/kg
24 | CCOCC1(CCc2ccccc2)CCN(Cc2ccc(C(C)=O)cc2)CC1 [Compound 146, 1-(4-((4-(ethoxymethyl)-4-phenethylpiperidin-1-yl)methyl)phenyl)ethanone] | > 10 mg/kg
25 | CCOCC1(CCc2ccsc2)CCN(Cc2ccc(NC(C)=O)cc2)CC1 [Compound 147, N-(4-((4-(ethoxymethyl)-4-(2-(thiophen-3-yl)ethyl)piperidin-1-yl)methyl)phenyl)acetamide] | < 10 mg/kg
26 | CCOCC1(CCc2ccc3ccccc3c2)CCN(Cc2ccc(NC(C)=O)cc2)CC1 [Compound 148, N-(4-((4-(ethoxymethyl)-4-(2-(naphthalen-2-yl)ethyl)piperidin-1-yl)methyl)phenyl)acetamide] | > 10 mg/kg
27 | CCOCC1(CCc2ccccn2)CCN(Cc2ccc(NC(C)=O)cc2)CC1 [Compound 149, N-(4-((4-(ethoxymethyl)-4-(2-(pyridin-2-yl)ethyl)piperidin-1-yl)methyl)phenyl)acetamide] | > 10 mg/kg
28 | CCOCC1(CCc2ccccc2)CCN(Cc2ccc(Br)cc2)CC1 [Compound 150, 1-(4-bromobenzyl)-4-(ethoxymethyl)-4-phenethylpiperidine] | > 10 mg/kg
29 | CCOCC1(CCc2ccccc2)CCN(Cc2ccc(C#N)cc2)CC1 [Compound 151, 4-((4-(ethoxymethyl)-4-phenethylpiperidin-1-yl)methyl)benzonitrile] | > 10 mg/kg
30 | CCOCC1(CCc2ccccc2)CCN(Cc2ccc(B3OC(C)(C)C(C)(C)O3)cc2)CC1 [Compound 152, 4-(ethoxymethyl)-4-phenethyl-1-(4-(4,4,5,5-tetramethyl-1,3,2-dioxaborolan-2-yl)benzyl)piperidine] | > 10 mg/kg
31 | CCOCC1(CCc2ccccc2)CCN(Cc2ccc(-c3cn[nH]n3)cc2)CC1 [Compound 153, 1-(4-(2H-1,2,3-triazol-4-yl)benzyl)-4-(ethoxymethyl)-4-phenethylpiperidine] | > 10 mg/kg
32 | CCOCC1(CCc2ccccc2)CCN(Cc2ccc(-c3nnn[nH]3)cc2)CC1.Cl [Compound 154, 1-(4-(1H-tetrazol-5-yl)benzyl)-4-(ethoxymethyl)-4-phenethylpiperidine HCl] | > 10 mg/kg
33 | CCOCC1(CCc2ccccc2)CCN(Cc2ccc(-c3n[nH]c(=O)[nH]3)cc2)CC1 [Compound 155, 3-(4-((4-(ethoxymethyl)-4-phenethylpiperidin-1-yl)methyl)phenyl)-1H-1,2,4-triazol-5(4H)-one] | > 10 mg/kg
34 | CCOCC1(CCc2ccccc2)CCN(Cc2ccc(C(C)O)cc2)CC1.Cl (centres unmarked) [Compound 156, 1-(4-((4-(ethoxymethyl)-4-phenethylpiperidin-1-yl)methyl)phenyl)ethanol HCl] | > 10 mg/kg
35 | CCOCC1(CCc2ccccc2)CCN(Cc2ccc(-n3ccnn3)cc2)CC1 [Compound 157] | > 10 mg/kg
36 | CCOCC1(CCc2ccccc2)CCN(Cc2ccc(-n3nccn3)cc2)CC1 [Compound 158] | > 10 mg/kg
37 | CCOC(C)C1(CCc2ccccc2)CCN(Cc2ccc(NC(C)=O)cc2)CC1.Cl (centres unmarked) [Compound 159, N-(4-((4-(1-ethoxyethyl)-4-phenethylpiperidin-1-yl)methyl)phenyl)acetamide HCl] | > 10 mg/kg
38 | CC(=O)Nc1ccc(CN2CCC(CCc3ccccc3)(C3CCC(C)O3)CC2)cc1 (centres unmarked) [Compound 160, N-(4-((4-(5-methyltetrahydro-furan-2-yl)-4-phenethylpiperidin-1-yl)methyl)phenyl)acetamide] | < 10 mg/kg
39 | CCOCC1(CCc2ccccc2)CCN(Cc2ccc(CC(N)=O)cc2)CC1 [Compound 161, 2-(4-((4-(ethoxymethyl)-4-phenethylpiperidin-1-yl)methyl)phenyl)acetamide] | > 10 mg/kg
40 | CCOCC1(CCc2ccccc2)CCN(Cc2ccc(CC(=O)NC)cc2)CC1 [Compound 162, 2-(4-((4-(ethoxymethyl)-4-phenethylpiperidin-1-yl)methyl)phenyl)-N-methylacetamide] | > 10 mg/kg
41 | CCOCC1(CCc2ccccc2)CCN(Cc2ccc(CC(C)O)cc2)CC1 (centres unmarked) [Compound 163, 1-(4-((4-(ethoxymethyl)-4-phenethylpiperidin-1-yl)methyl)phenyl)propan-2-ol] | > 10 mg/kg
42 | CC(=O)Nc1ccc(CN2CCC(CCc3ccccc3)(C3(C)CC=CCO3)CC2)cc1.Cl (centres unmarked) [Compound 164, N-(4-((4-(2-methyl-3,6-dihydro-2H-pyran-2-yl)-4-phenethylpiperidin-1-yl)methyl)phenyl)acetamide HCl] | > 10 mg/kg
43 | CC(=O)Nc1ccc(CN2CCC(CCc3ccccc3)(C3(C)CCCCO3)CC2)cc1 (centres unmarked) [Compound 165, N-(4-((4-(2-methyltetrahydro-2H-pyran-2-yl)-4-phenethylpiperidin-1-yl)methyl)phenyl)acetamide] | < 10 mg/kg
44 | CCOCC1(/C=C/c2ccccn2)CCN(Cc2ccc(NC(C)=O)cc2)CC1 [Compound 166, (E)-N-(4-((4-(ethoxymethyl)-4-(2-(pyridin-2-yl)vinyl)piperidin-1-yl)methyl)phenyl)acetamide] | > 10 mg/kg

Reference: US11584765B2 (priority 2017, dated 2023)
